Experimental data from US6417247B1, “Polymer/ceramic composites” (priority 1997, dated 2002).

Assay: Release of model compounds from chitosan-calcium phosphate composites in PBS
Conditions: chitosan-TCP composite, PBS pH 7.4, 37° C., FIG. 12

## O=c1[nH]cc(F)c(=O)[nH]1 [5-FU, 5-fluorouracil]
  time over which the model compound was released from the composite: ≤ 10 h
